From article PMC11536652 (BMC Chemistry, 2024)
Read-outs that look alike come from different tables or passages of the source.

What was measured:
[1] = tepotinib 50 mg/kg oral, rat plasma, mean ± SD
[2] = previous study, humans; cited from earlier work
[3] = Stability of tepotinib in QC plasma samples; type: in vitro ADME, rat

CN1CCC(COc2cnc(-c3cccc(Cn4nc(-c5cccc(C#N)c5)ccc4=O)c3)nc2)CC1 [tepotinib, Tepotinib]
CLz/F ([1]; Group A: control (0.5% CMC-Na)): 10.88 ± 1.04 L/h | AUC(0-t) ([1]; male, Sprague-Dawley, rat, in vivo, po, 50 mg/kg, AUC0→t, Group A: control (0.5% CMC-Na)): 4600 ± 458 ng·h/mL | AUC(0-inf) ([1]; male, Sprague-Dawley, rat, in vivo, po, 50 mg/kg, AUC0→∞, Group A: control (0.5% CMC-Na)): 4630 ± 454 ng·h/mL | Cmax ([1]; male, Sprague-Dawley, rat, in vivo, po, 50 mg/kg, Cmax, Group A: control (0.5% CMC-Na)): 180 ± 38.2 ng/mL | MRT last ([1]; male, Sprague-Dawley, rat, in vivo, po, 50 mg/kg, MRT0→t, Group A: control (0.5% CMC-Na)): 18.9 ± 1.21 h | MRT inf ([1]; male, Sprague-Dawley, rat, in vivo, po, 50 mg/kg, MRT0→∞, Group A: control (0.5% CMC-Na)): 19.4 ± 1.36 h | Tmax ([1]; male, Sprague-Dawley, rat, in vivo, po, 50 mg/kg, Tmax, Group A: control (0.5% CMC-Na)): 8.8 ± 3.03 h | half-life ([1]; male, Sprague-Dawley, rat, in vivo, po, 50 mg/kg, t1/2, Group A: control (0.5% CMC-Na)): 9.4 ± 2.35 h | Tmax [2]: 9 h | stability maintained (long-term stability) ([3]; -80 ℃ refrigerator): 4 weeks | stability maintained over freeze‒thaw cycles ([3]; -80 ℃ to ambient temperature): 3 freeze‒thaw cycles | stability maintained (short-term stability) ([3]; ambient temperature): 3 h | stability maintained in autosampler ([3]; autosampler (10 ℃)): 6 h
